Laboratory results from patent US7226935B2, “Hypoglycemic agent” (Japan Science and Technology Corporation, priority 2001, dated 2007).

Tests used:
rat fat cells = assay: Inhibition of free fatty acid release from epinephrine-stimulated rat fat cells; format: cell-based; details: 10^-5 M epinephrine, 3 hours at 37° C., VOSO4 is 1.00 mM, other values are relative to it, read-out: IC50 (mM), concentration that inhibits 50% fatty acid release
Experimental: According to the method described in Biol. Pharm.
In silicon-processed vials, the fat cells isolated in the above (2.5×10^6 cells/ml) were pre-incubated in 1 ml of KRB buffer that contains a varying concentration (10^−4, 5×10^−4, 10^−3 M) of VOSO4 different Zn(II) complexes of the invention and 20 mg/ml of BSA, at 37° C. for 0.5 hours. Next, 10^−5 M of epinephrine was added to the reaction mixture, and the resulting solution was incubated at 37° C. for 3 hours. The reaction was stopped by cooling the mixture with ice, and the mixture was centrifuged at 3000 rpm for 10 minutes. The free fatty acid (FFA) level in the extracellular solution was measured with an NEFA kit, and IC50 of the test compound was calculated.

KK-A^y mice = assay: Glucose tolerance (glucose load) test in KK-A^y mice after 14-day administration; format: in vivo; details: for effect in glucose load test compared with Zn(2-AM-py)2Cl2 or Zn(Car)2Cl2 / diabetic condition in glucose load test: FIG. 21 and FIG. 22, 14-day intraperitoneal administration; for diabetic condition in glucose load test: vs diabetic control mice
Text: This is a glucose load test effected according to the method described in Biochem. Biophys. Res. Comm., 281, 1190-1193 (2001), in which the zinc(II) complex of the invention was intraperitoneally administered to KK-A^y mice for 14 days or was not thereto. […]

IC50 (rat fat cells) [mM] | Compound | also measured
0.81 | C[C@H](O)C(=O)O.C[C@H](O)C(=O)O.[Zn] [Zn(Lac)2, L-lactic Acid (Lac)/zinc(II) complex] | 
0.8 | O=C1O[C@H]([C@@H](O)CO)C(O)=C1[O-].O=C1O[C@H]([C@@H](O)CO)C(O)=C1[O-].[Zn+2] [Zn(Vit-C)2, bis(L-ascorbic acid)/zinc(II) complex] | 
0.8 | L-carnitine (γ-trimethyl-β-hydroxybutyrobetaine=Car)/zinc(II) complex [Zn(Car)2Cl2] | 
0.85 | bis(2-aminomethylpyridine)/zinc(II) complex [Zn(2-AM-py)2Cl2] | blood glucose level after 120 minutes (KK-A^y mice; FIG. 19, 13-hour fasting after 14-day intraperitoneal administration, 1 g/kg glucose orally): almost the normal level; peak top of blood glucose level after glucose administration (KK-A^y mice; FIG. 19, 13-hour fasting after 14-day intraperitoneal administration, 1 g/kg glucose orally, vs no complex administration): low peak top; blood glucose level after 120 minutes (KK-A^y mice; FIG. 20, 13-hour fasting after 14-day administration, 1 g/kg glucose orally): almost the normal level; peak top of blood glucose level after glucose administration (KK-A^y mice; FIG. 20, 13-hour fasting after 14-day administration, vs oral L-carnitine and acacia solution alone): low peak top
0.98 | bis(quinic acid)/zinc(II) complex [Zn(Qui)2] | effect in glucose load test compared with Zn(2-AM-py)2Cl2 or Zn(Car)2Cl2 (KK-A^y mice): somewhat lower; diabetic condition in glucose load test (KK-A^y mice): significantly ameliorated
0.84 | bis(vitamin U)/zinc(II) complex [Zn(Vit-U)Cl2] | effect in glucose load test compared with Zn(2-AM-py)2Cl2 or Zn(Car)2Cl2 (KK-A^y mice): somewhat lower; diabetic condition in glucose load test (KK-A^y mice): significantly ameliorated
0.4 | bis-(R)-2-(1-aminoethyl)pyridine (=α-pyridylethylamine)/zinc(II) complex [Zn((R)-2-AM-py)2Cl2] | 
0.39 | bis-(S)-2-(1-aminoethyl)pyridine/zinc(II) complex [Zn((S)-2-AM-py)2Cl2] | 

Compound | IC50 (rat fat cells) [mM] | also measured
O=S(=O)([O-])[O-].[O]=[V+2] [VOSO4, oxovanadium sulfate, reference compound] | 1 | 
bis(glycyl-N,N′-ethylene-L-alanyl-L-alanine ethyl ester)/zinc(II) complex [Zn(Gly-eAA-OEt)2Cl2] | 0.85 | 
